Our source for the EC50 values is patent publication US20260374754A1, “N-((ISOQUINOLIN-6-YL)METHYL)-1H-PYRAZOLE-4-CARBOXAMIDE DERIVATIVES AS PLASMA KALLIKREIN INHIBITORS FOR THE TREATMENT OF HEREDITARY ANGIODEMA” (Takeda Pharmaceutical Company Limited, priority 2022, published 2026).

Structures are written as SMILES. Structures can show the parent of a compound that is named as a salt. Where only a bound is given, the exact number is not on record here.

For the experiment, the target named is human activated kallikrein enzyme (Homo sapiens, UniProt P03952). Description: Inhibition of human activated plasma kallikrein, fluorogenic PFR-AMC substrate, 500 pM enzyme format. Particulars: 500 pM activated kallikrein; 300 μM PFR-AMC; 30 min preincubation; 10 min room temperature; pH 7.5; read-out: Primary Dose Response Assay: Average EC50. In kind it is biochemical. The method, boiled down: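 Using fluorogenic PFR-AMC at 300 μM, cleavage by 500 pM human activated kallikrein ran 10 min at room temperature, read at 460 nm emission (380 nm excitation). Enzyme and compounds were first preincubated 30 min in 20 mM Tris pH 7.5, 150 mM NaCl, 1 mM EDTA, 0.1% PEG-400, 0.1% Triton X-100.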
human activated kallikrein enzyme, sequence (P03952 391-638 limits assumed): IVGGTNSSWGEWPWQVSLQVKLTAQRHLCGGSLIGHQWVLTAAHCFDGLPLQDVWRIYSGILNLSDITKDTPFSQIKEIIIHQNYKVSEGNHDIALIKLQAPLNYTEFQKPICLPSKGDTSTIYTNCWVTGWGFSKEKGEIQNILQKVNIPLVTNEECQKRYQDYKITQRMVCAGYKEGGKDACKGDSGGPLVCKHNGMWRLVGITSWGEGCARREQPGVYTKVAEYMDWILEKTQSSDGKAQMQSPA
human activated kallikrein enzyme, sequence (P03952 20-390 partner limits assumed): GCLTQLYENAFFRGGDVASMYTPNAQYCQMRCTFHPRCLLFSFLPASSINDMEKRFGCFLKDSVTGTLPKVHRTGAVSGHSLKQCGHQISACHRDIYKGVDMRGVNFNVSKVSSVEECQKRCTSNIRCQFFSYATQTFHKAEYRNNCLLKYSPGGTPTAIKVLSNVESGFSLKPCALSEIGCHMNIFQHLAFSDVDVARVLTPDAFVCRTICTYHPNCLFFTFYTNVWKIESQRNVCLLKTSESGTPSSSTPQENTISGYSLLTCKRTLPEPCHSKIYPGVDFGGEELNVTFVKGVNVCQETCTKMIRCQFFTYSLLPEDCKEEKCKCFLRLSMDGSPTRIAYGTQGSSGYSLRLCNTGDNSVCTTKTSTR
A word on the EC50: it is the midpoint of the concentration-response curve. For the compound `Cc1cc2nc(Cn3cc(C(=O)NCc4c(C)cc5c(N)nccc5c4C)cn3)cn2cc1C` [Example 102, N-((1-amino-5,7-dimethylisoquinolin-6-yl)methyl)-1-((6,7-dimethylimidazo[1,2-a]pyridin-2-yl)methyl)-1H-pyrazole-4-carboxamide], the EC50 was < 1 nM.
To `Cc1cc2c(N)nccc2c(C)c1CNc1cc(OCc2ccc(Cn3cccn3)nc2)ncn1` [Example 300, 6-(((6-((6-((1H-pyrazol-1-yl)methyl)pyridin-3-yl)methoxy)pyrimidin-4-yl)amino)methyl)-5,7-dimethylisoquinolin-1-amine] belongs 100 to 1000 nM; to `Cc1cc2c(N)nccc2c(C)c1CNc1cc(NCc2cc(C)c(OCC(=O)N(C)C)c(C)c2)ncn1` [Example 348, 2-(4-(((6-(((1-amino-5,7-dimethylisoquinolin-6-yl)methyl)amino)pyrimidin-4-yl)amino)methyl)-2,6-dimethylphenoxy)-N,N-dimethylacetamide], 1 to 10 nM; to `Cc1ccc2nc(C(CO)n3cc(C(=O)NCc4c(C)cc5c(N)nccc5c4C)cn3)cn2c1` (centres unmarked) [Example 130, N-((1-amino-5,7-dimethylisoquinolin-6-yl)methyl)-1-(2-hydroxy-1-(6-methylimidazo[1,2-a]pyridin-2-yl)ethyl)-1H-pyrazole-4-carboxamide], < 1 nM.
Under `Cc1cc(Cn2cc(C(=O)NCc3c(C)cc4c(N)nccc4c3C)cn2)ccc1CC(=O)N(C)C` [Example 26, N-((1-amino-5,7-dimethylisoquinolin-6-yl)methyl)-1-(4-(2-(dimethylamino)-2-oxoethyl)-3-methylbenzyl)-1H-pyrazole-4-carboxamide] stands < 1 nM; under `Cc1cc2c(N)nccc2c(C)c1CNc1cc(NCc2ccc3ncccc3c2)ncn1` [Example 337, N^4-((1-amino-5,7-dimethylisoquinolin-6-yl)methyl)-N^6-(quinolin-6-ylmethyl)pyrimidine-4,6-diamine], 1 to 10 nM.
To `Cc1cc2c(N)nccc2c(C)c1CNc1cc(OCc2cc3cc(C4CC4)ccc3s2)ncn1` [Example 395, 6-(((6-((5-cyclopropylbenzo[b]thiophen-2-yl)methoxy)pyrimidin-4-yl)amino)methyl)-5,7-dimethylisoquinolin-1-amine] belongs 10 to 100 nM.
Regarding `Cc1cc2c(N)nccc2c(C)c1CNc1ncnc2[nH]c(Cc3ccc4ccccc4c3)cc12` [Example 540, 5,7-dimethyl-6-(((6-(naphthalen-2-ylmethyl)-7H-pyrrolo[2,3-d]pyrimidin-4-yl)amino)methyl)isoquinolin-1-amine], the concentration giving a half-maximal response (EC50) was 10 to 100 nM.
To `Cc1c(CN)c(C2(C)CC2)cc2c(Nc3cc(OCc4cn5cc(C6CC6)ccc5n4)ncn3)nccc12` [Example 255, 6-(aminomethyl)-N-(6-((6-cyclopropylimidazo[1,2-a]pyridin-2-yl)methoxy)pyrimidin-4-yl)-5-methyl-7-(1-methylcyclopropyl)isoquinolin-1-amine] belongs 100 to 1000 nM; to `Cc1cc2c(N)nccc2c(C)c1CNC(=O)c1cnn(Cc2ccc3cccc(Br)c3n2)c1` [Example 159, N-((1-amino-5,7-dimethylisoquinolin-6-yl)methyl)-1-((8-bromoquinolin-2-yl)methyl)-1H-pyrazole-4-carboxamide], 10 to 100 nM.
Consider `Cc1cc2c(N)nccc2c(C)c1CNc1cc(OCc2cn3c(C)c(Cl)ccc3n2)ncn1` [Example 304, 6-(((6-((6-chloro-5-methylimidazo[1,2-a]pyridin-2-yl)methoxy)pyrimidin-4-yl)amino)methyl)-5,7-dimethylisoquinolin-1-amine], for which the EC50 was < 1 nM.
Take `Cc1cc2c(N)nccc2c(C)c1CNC(=O)c1cnn(Cc2ccc(F)cc2)c1` [Example 39, N-((1-amino-5,7-dimethylisoquinolin-6-yl)methyl)-1-(4-fluorobenzyl)-1H-pyrazole-4-carboxamide]: the concentration for a half-maximal effect (EC50) is 100 to 1000 nM.
To `Cc1cc2c(N)nccc2c(C)c1CNc1cc(NCc2ccc(Cn3cccn3)cc2F)cnn1` [Example 385, N^5-(4-((1H-pyrazol-1-yl)methyl)-2-fluorobenzyl)-N^3-((1-amino-5,7-dimethylisoquinolin-6-yl)methyl)pyridazine-3,5-diamine] belongs < 1 nM; to `Cc1cc2c(N)nccc2c(C)c1CNc1ccc2ncc(C(O)c3ccc4ccccc4c3)n2c1` (centres unmarked) [Example 521, (6-(((1-amino-5,7-dimethylisoquinolin-6-yl)methyl)amino)imidazo[1,2-a]pyridin-3-yl)(naphthalen-2-yl)methanol], > 1000 nM; to `Cc1cc2c(N)nccc2c(C)c1CNc1cc(NCc2ccc(OC(C)(C)C(=O)N(C)C)cc2)ncn1` [Example 354, 2-(4-(((6-(((1-amino-5,7-dimethylisoquinolin-6-yl)methyl)amino)pyrimidin-4-yl)amino)methyl)phenoxy)-N,N,2-trimethylpropanamide, formic acid salt], 10 to 100 nM.
Under `Cc1cc2c(N)nccc2c(C)c1CNC(=O)c1cnn(Cc2cncnc2)c1` [Example 77, N-((1-amino-5,7-dimethylisoquinolin-6-yl)methyl)-1-(pyrimidin-5-ylmethyl)-1H-pyrazole-4-carboxamide] stands 100 to 1000 nM.
Turning to `Cc1cc2c(N)nccc2c(C)c1CNC(=O)c1cnn(Cc2ccc(Cc3cccn4ccnc34)cc2)c1` [Example 167, N-((1-amino-5,7-dimethylisoquinolin-6-yl)methyl)-1-(4-(imidazo[1,2-a]pyridin-8-ylmethyl)benzyl)-1H-pyrazole-4-carboxamide], the EC50 is < 1 nM.
To `COCc1c(C(=O)NCc2c(C)cc3c(N)nccc3c2C)cnn1Cc1cnc(N2CCCC2)nc1` [Example 161, N-((1-amino-5,7-dimethylisoquinolin-6-yl)methyl)-5-(methoxymethyl)-1-((2-(pyrrolidin-1-yl)pyrimidin-5-yl)methyl)-1H-pyrazole-4-carboxamide] belongs 10 to 100 nM.
Under `Cc1cc2c(N)nccc2c(C)c1CNC(=O)c1cnn(Cc2ccc(CC(=O)N3C[C@@H]4[C@H](C3)[C@H]4C(=O)O)cc2)c1` [Example 213, (1R,5S,6r)-3-(2-(4-((4-(((1-amino-5,7-dimethylisoquinolin-6-yl)methyl)carbamoyl)-1H-pyrazol-1-yl)methyl)phenyl)acetyl)-3-azabicyclo[3.1.0]hexane-6-carboxylic acid] stands 10 to 100 nM; under `Cc1ccc2nc(C(C)n3cc(C(=O)NCc4c(C)cc5c(N)nccc5c4C)cn3)cn2c1` (single isomer, unassigned) [Example 11, (R*)-N-((1-amino-5,7-dimethylisoquinolin-6-yl)methyl)-1-(1-(6-methylimidazo[1,2-a]pyridin-2-yl)ethyl)-1H-pyrazole-4-carboxamide], < 1 nM; under `CC(=O)Nc1nccc2c(C)c(CNC(=O)c3cnn(Cc4cn5cc(C)ccc5n4)c3)c(C)cc12` [Example 8, N-((1-acetamido-5,7-dimethylisoquinolin-6-yl)methyl)-1-((6-methylimidazo[1,2-a]pyridin-2-yl)methyl)-1H-pyrazole-4-carboxamide], 10 to 100 nM.
Under `Cc1cc2c(N)nccc2c(C)c1CNc1cc(OCc2ccc(Oc3cccn(C)c3=O)cc2)cnn1` [Example 427, 3-(4-(((6-(((1-amino-5,7-dimethylisoquinolin-6-yl)methyl)amino)pyridazin-4-yl)oxy)methyl)phenoxy)-1-methylpyridin-2(1H)-one] stands < 1 nM; under `Cc1cc2c(N)nccc2c(C)c1CNC(=O)c1cnn(Cc2ccc(C3(C(=O)N4CCCC4)CC3)cc2)c1` [Example 122, N-((1-amino-5,7-dimethylisoquinolin-6-yl)methyl)-1-(4-(1-(pyrrolidine-1-carbonyl)cyclopropyl)benzyl)-1H-pyrazole-4-carboxamide], < 1 nM.
With `Cc1cc2c(N)nccc2c(C)c1CNC(=O)c1cnn(Cc2cn3cc(C4CC4)c(Cl)cc3n2)c1` [Example 147, N-((1-amino-5,7-dimethylisoquinolin-6-yl)methyl)-1-((7-chloro-6-cyclopropylimidazo[1,2-a]pyridin-2-yl)methyl)-1H-pyrazole-4-carboxamide], the 50% effective concentration (EC50) is < 1 nM.
Regarding `Cc1cc2c(N)nccc2c(C)c1CNC(=O)c1cnn(Cc2ccc(CC(=O)N3C[C@@H]4[C@@H](CF)[C@@H]4C3)cc2)c1` [Example 207, N-((1-amino-5,7-dimethylisoquinolin-6-yl)methyl)-1-(4-(2-((1R,5S,6r)-6-(fluoromethyl)-3-azabicyclo[3.1.0]hexan-3-y1)-2-oxoethyl)benzyl)-1H-pyrazole-4-carboxamide], the EC50 was 1 to 10 nM.
Under `CCN(CC)C(=O)Cc1ccc(Cn2cc(C(=O)NCc3c(C)cc4c(N)nccc4c3C)cn2)cc1` [Example 226, N-((1-amino-5,7-dimethylisoquinolin-6-yl)methyl)-1-(4-(2-(diethylamino)-2-oxoethyl)benzyl)-1H-pyrazole-4-carboxamide] stands < 1 nM; under `Cc1cc2c(N)nccc2c(C)c1CNC(=O)c1cnn(Cc2nc3ccccc3n2C(C)C)c1` [Example 71, N-((1-amino-5,7-dimethylisoquinolin-6-yl)methyl)-1-((1-isopropyl-1H-benzo[d]imidazol-2-yl)methyl)-1H-pyrazole-4-carboxamide], 100 to 1000 nM.
Under `Cc1cc2c(N)nccc2c(C)c1CNc1cc(NCc2cc(C)c(OCc3nccs3)c(C)c2)ncn1` [Example 355, N^4-((1-amino-5,7-dimethylisoquinolin-6-yl)methyl)-N^6-(3,5-dimethyl-4-(thiazol-2-ylmethoxy)benzyl)pyrimidine-4,6-diamine, formic acid salt] stands 1 to 10 nM; under `Cc1cc2c(N)nccc2c(C)c1CNC(=O)c1cnn(Cc2ccc(N3CCCC3)nc2)c1C(F)(F)F` [Example 193, N-((1-amino-5,7-dimethylisoquinolin-6-yl)methyl)-1-((6-(pyrrolidin-1-y1)pyridin-3-yl)methyl)-5-(trifluoromethyl)-1H-pyrazole-4-carboxamide], 100 to 1000 nM.
